# According to patent US7279321B2, “Methods for increasing the resistance of a host cell to aromatic carboxylic acids” (priority 2003, dated 2007):
# How the values were obtained:
# Assay type in all cases: cell-based
# [1] = tested on: E. coli strain DPD2444 (yhcP::TN<Kan>); assay: MIC, 2-fold dilutions, Vogel-Bonner medium with 0.4% glucose; conditions: Escherichia coli, read-out: MIC for pHCA
# From the text: (§1) The yhcP::TN<Kan> was introduced into E. coli strain MG1655 (obtained from Prof. Douglas Berg, Washington University School of Medicine, St. Louis, […].) by P1clr100 Cm mediated transduction to kanamycin resistance using phage lysates of E. coli strain DPD2443. One of the resultant kanamycin resistant transductants was named DPD2444.
# E. coli strain MG1655 = assay: as above; conditions: Escherichia coli, overnight at 37° C., read-out: MIC for pHCA
# From the text: as §1
# E. coli DPD2444 (yhcP−) = assay: microbe, parasite or virus in culture
# Procedure: (§2) Additional compounds were tested for growth inhibition of E. coli MG1655 (yhcP^+) and DPD2444 (yhcP^−) in Vogel-Bonner medium with glucose as the carbon source and with 0.01% tetrazolium violet added as an indicator of viability. A series of two-fold dilutions of each chemical was made to the wells of a clear 96-well microplate in 50 μl volume. To these wells was added 50 μl of an overnight culture in Vogel Bonner medium with glucose as a carbon source of either MG1655 or DPD2444 that had been previously diluted 500-fold into fresh medium. The plates were incubated at 37° C. without shaking for 16 to 18 hours. The purple color in each well was visually scored. A score of 4+ indicated full purple color equivalent to a no chemical control well. Scores of 3+, 2+, or 1+ indicated decreasing amounts of purple color. A score of − indicated the complete absence of color. The MIC was defined as the lowest tested concentration that gave complete absence of color. The rank of difference between strains was defined as the score of pigment color for E. coli MG1655 in wells containing the concentration of a given chemical at the MIC for DPD24444. When MG1655 had no color, the score was 0. When MG 1655 was scored at 1+, the score was 1, when scored at 2+, the score was 2, etc.
# E. coli MG1655 (yhcP+) = assay: microbe, parasite or virus in culture
# Procedure: as §2
# [2] = tested on: yhcP gene (co-transcribed with yhcQ and yhcR); assay: expression of yhcP upon treatment of E. coli cells with aromatic carboxylic acids
# [3] = tested on: E. coli strain DPD3313 (MG1655 with pTrcHis2TOPO®/lacZ); assay: pHCA MIC, 2-fold dilutions, Vogel-Bonner medium with 0.4% glucose; conditions: Escherichia coli, no IPTG, overnight at 37° C.
# Procedure: (§3) The pHCA MICs for E. coli strains DPD3313 and DPD3314 were determined. […] IPTG was not added to the medium because the trc promoter has substantial activity in its absence.
# [4] = tested on: E. coli strain DPD3314 (MG1655 with pDEW668, multicopy yhcRQP); assay: as above
# Procedure: as §3
# [5] = tested on: E. coli strain DPD4055 (MG1655 with pTrcHis2TOPO®/lacZ); assay: growth and CFU/ml in defined medium containing pHCA
# Procedure: (§4) The plasmid pDEW668 (described in Example 2) that carries the E. coli yhcRQP pHCA efflux system was moved by transformation into E. coli strain MG1655 obtained from the American Type Culture Collection, Manassas, Va. (ATCC #700926. lot # 2660700) to form strain DPD4057. For a control, plasmid pTrcHis2TOPO®/lacZ was also put into the same host strain, making strain DPD4055. E. coli strains DPD4055 and DPD4057 were grown overnight at 37° C. in a defined medium made with 4 g/l (NH4)2SO4, 1.26 g/l KH2PO4, 2.42 g/l K2HPO4, 0.5 g/l MgSO4.7H2O, 30 mM MOPSO, pH 7.0, 1 mg/l thiamin, 50 mg/l citric acid, 7.5 mg/l CaCl2.2H2O, 25 mg/l FeSO4.7H2O, 1.95 mg/l ZnSO4.7H2O, 1.9 mg/l CuSO4.5H2O, 1.0 mg/l CoCl2.6H2O, 1.5 mg/l MnCl2.4H2O, 7.5 g/l glucose, and 25 μg/ml ampicillin. The next day, tubes with 1.0 ml of the same medium containing 7.5, 5.0, 3.3, 2.2, 1.5, or 0 g/l pHCA were inoculated with 10 μl of the overnight cultures. These tubes were grown at 37° C. on a roller drum in the dark for 1 to 2 days. At 21 hours after inoculation, the tube with 5.0 g/l pHCA inoculated with DPD4057 had visible growth. In contrast, strain DPD4055 had visible growth at 2.2 g/l pHCA, but not higher.
# (§5) At 48 hours of incubation, the CFU/ml of the cultures growing in the presence of 7.5 g/l pHCA was determined by plating dilutions onto LB plates. Strain DPD4055 had 2×10^2 CFU/ml. Strain DPD4057 had 8×10^7 CFU/ml. The inoculum for each culture was 2×10^7 CFU/ml. […] In contrast, the culture carrying multicopy yhcRQP increased in CFU/ml.
# [6] = tested on: E. coli strain DPD4057 (MG1655 with pDEW668, multicopy yhcRQP); assay: as above
# Procedure: as §4, §5
structure (smiles),measurement,setting,value
"O=C(O)C=Cc1ccc(O)cc1 [pHCA, para-hydroxycinnamic acid]",MIC,[1],12 mM
same,MIC,E. coli strain MG1655,50 mM
same,MIC,"E. coli DPD2444 (yhcP−); Escherichia coli, read-out: MIC, DPD2444 (yhcP−)",10 mM
same,Fold Diff,E. coli DPD2444 (yhcP−); MIC MG1655 versus MIC DPD2444,4
same,defined as substrate of the YhcP efflux pump by this genetic test,E. coli DPD2444 (yhcP−); MIC difference at least 2-fold and rank at least 2,substrates of the YhcP efflux pump
same,MIC,"E. coli MG1655 (yhcP+); Escherichia coli, MG1655, read-out: MIC, MG1655 (yhcP+)",40 mM
same,Rank Diff,"E. coli MG1655 (yhcP+); score of pigment color for MG1655 at the MIC for DPD2444 (0 = no color, 4 = full purple color)",2
same,expression of the yhcP gene upon treatment of E. coli cells,[2],highly upregulated
same,MIC,[3],50 mM
same,increased resistance to pHCA by multicopy expression of the yhcRQP operon,[4]; DPD3314 versus DPD3313,two-fold
same,MIC,"[4]; Escherichia coli, MG1655, read-out: MIC for pHCA",100 mM
same,effect of pHCA on the strain without the multicopy yhcRQP genes (in words),"[5]; 7.5 g/l pHCA, 48 hours",bactericidal effect
same,CFU/ml of culture in the presence of pHCA,"[5]; 7.5 g/l pHCA, 48 hours, DPD4055, inoculum 2×10^7 CFU/ml",2×10^2 CFU/ml
same,"pHCA concentration with visible growth, but not higher","[5]; 21 hours after inoculation, defined medium, 37° C., DPD4055, tested 7.5, 5.0, 3.3, 2.2, 1.5 g/l",2.2 g/l
same,CFU/ml of culture in the presence of pHCA,"[6]; 7.5 g/l pHCA, 48 hours, DPD4057, inoculum 2×10^7 CFU/ml",8×10^7 CFU/ml
same,pHCA concentration with visible growth,"[6]; 21 hours after inoculation, defined medium, 37° C., DPD4057, tested 7.5, 5.0, 3.3, 2.2, 1.5 g/l",5.0 g/l
same,fold improvement in pHCA tolerance by multicopy expression of yhcRQP,"[6]; DPD4057 versus DPD4055, 21 hours",2.3 fold
